Test [1] addresses TF/VIIa (Homo sapiens, UniProt P08709). Description: Inhibition of TF/VIIa (table title: Affinity to receptors). Type of test: biochemical. The text has this: The inhibition of factor VIIa by the compounds according to the invention and the measurement of the anticoagulant and antithrombotic activity can be determined by conventional in-vitro or in-vivo methods. A conventional method for the measurement of the inhibition of factor VIIa is described, for example, by H. F. Ronning et al. in Thrombosis Research 1996, 84, 73-81.

Test [2] has as its target factor Xa, human (Homo sapiens, UniProt P00742). Nature of the test: Inhibition of factor Xa (table title: Affinity to receptors). Format: biochemical. From the text: The inhibition of factor Xa by the compounds according to the invention and the measurement of the anticoagulant and antithrombotic activity can be determined by conventional in-vitro or in-vivo methods. A suitable method is described, for example, by J. Hauptmann et al. in Thrombosis and Haemostasis 1990, 63, 220-223.
The inhibition of factor Xa can be measured, for example, by the method of T. Hara et al. in Thromb. Haemostas. 1994, 71, 314-319.

SMILES strings stand for the structures.

By IC50 is commonly meant the midpoint of a concentration-inhibition curve. A higher IC50 goes with weaker potency in that assay.

factor Xa, human, sequence (P00742 235-488 limits assumed): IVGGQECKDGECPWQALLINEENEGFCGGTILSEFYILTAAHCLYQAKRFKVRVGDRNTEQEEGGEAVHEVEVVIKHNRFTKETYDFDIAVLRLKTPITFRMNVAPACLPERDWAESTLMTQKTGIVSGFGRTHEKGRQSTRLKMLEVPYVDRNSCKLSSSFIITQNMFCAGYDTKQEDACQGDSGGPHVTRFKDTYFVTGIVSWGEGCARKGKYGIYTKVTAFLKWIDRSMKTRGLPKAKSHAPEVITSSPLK
factor Xa, human, sequence (P00742 41-179 limits assumed): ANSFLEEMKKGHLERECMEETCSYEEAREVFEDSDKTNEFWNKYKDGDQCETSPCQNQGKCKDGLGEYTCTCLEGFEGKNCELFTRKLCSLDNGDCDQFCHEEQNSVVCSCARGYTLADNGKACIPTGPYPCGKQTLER
TF/VIIa, sequence (P08709 213-466 limits assumed): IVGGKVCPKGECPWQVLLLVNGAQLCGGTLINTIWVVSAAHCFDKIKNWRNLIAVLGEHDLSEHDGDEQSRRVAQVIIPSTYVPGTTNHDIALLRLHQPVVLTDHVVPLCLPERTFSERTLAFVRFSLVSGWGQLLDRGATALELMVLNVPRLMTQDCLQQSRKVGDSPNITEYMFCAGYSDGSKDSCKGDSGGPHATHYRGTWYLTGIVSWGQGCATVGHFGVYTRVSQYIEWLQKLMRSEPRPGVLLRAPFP
TF/VIIa, sequence (P08709 61-212 limits assumed): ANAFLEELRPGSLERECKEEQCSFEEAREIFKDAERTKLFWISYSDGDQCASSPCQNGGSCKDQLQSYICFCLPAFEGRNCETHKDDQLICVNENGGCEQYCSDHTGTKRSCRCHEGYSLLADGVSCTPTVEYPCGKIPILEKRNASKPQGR
TF/VIIa, sequence (P13726 33-295 partner): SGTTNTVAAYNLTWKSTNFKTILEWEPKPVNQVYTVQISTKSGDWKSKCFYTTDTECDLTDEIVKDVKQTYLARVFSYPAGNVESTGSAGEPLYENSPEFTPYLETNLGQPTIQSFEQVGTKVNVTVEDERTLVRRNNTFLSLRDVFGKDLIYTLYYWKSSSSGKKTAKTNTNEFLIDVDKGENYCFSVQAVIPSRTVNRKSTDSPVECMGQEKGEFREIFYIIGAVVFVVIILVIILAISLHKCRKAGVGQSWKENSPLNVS

Turning to `CN(CC(=O)Nc1ccc(-c2ccccc2S(N)(=O)=O)cc1)c1cccc(C(=N)N)c1` [N-(2′-aminosulfonylbiphenyl-4-yl)-2-[(3-amidinophenyl)-N-methylamino]acetamide], the results for the IC50 in test [1] and in test [2] were 25 nM and 10 nM, respectively.

In the case of `CCCN(CC(=O)Nc1ccc(-c2ccccc2S(C)(=O)=O)cc1)c1cccc(C(=N)N)c1` [N-(2′-methylsulfonylbiphenyl-4-yl)-2-[(3-amidinophenyl)-N-propylamino]acetamide], the IC50 in test [1] came out at 31 nM; in test [2], 120 nM.

For the molecule `N=C(N)c1cccc(N(CC(=O)Nc2ccc(-c3ccccc3S(N)(=O)=O)cc2)Cc2ccccc2)c1` [N-(2′-aminosulfonylbiphenyl-4-yl)-2-[(3-amidinophenyl)-N-benzylamino]acetamide], the IC50 in test [1] was determined as 15 nM; in test [2], 81 nM.

For `CCCN(CC(=O)Nc1ccc(-c2ccccc2S(N)(=O)=O)cc1)c1cccc(C(=N)N)c1` [N-(2′-aminosulfonylbiphenyl-4-yl)-2-[(3-amidinophenyl)-N-propylamino]acetamide], the IC50 was 44 nM in test [1] and 130 nM in test [2].

`CC(C)CN(CC(=O)Nc1ccc(-c2ccccc2S(N)(=O)=O)cc1)c1cccc(C(=N)N)c1` [N-(2′-aminosulfonylbiphenyl-4-yl)-2-[(3-amidinophenyl)-N-isobutylamino]acetamide]: the IC50 was found to be 370 nM in test [1] and 480 nM in test [2].

For the origin of these results see US20030166694A1, “Glycinamides” (priority 2000, published 2003).
